ChEMBL document CHEMBL4804286, “3-amino-4-(4-(4 (dimethylcarbamoyl) phenyl)-1,4-diazepan-1-yl) thieno [2,3-b] pyridine-2-carboxamide for use in cancer therapy and formulations comprising the same” (2020)
Several values for one entry are separate records, joined by “and”; a condition that tells them apart may be missing. Equal entries are not always repeated.

What was measured:
[1] = target: LIM domain kinase 2 (Homo sapiens) (UniProt P53671); assay: Inhibition of human LIMK2 assessed as percent of control at 2000 nM by KINOMEscan assay relative to control; set-up: scale not given: the % may be the effect or the level left
Sequence of LIM domain kinase 2 (Homo sapiens) (P53671 whole entry, looked up, the tested form may be a part): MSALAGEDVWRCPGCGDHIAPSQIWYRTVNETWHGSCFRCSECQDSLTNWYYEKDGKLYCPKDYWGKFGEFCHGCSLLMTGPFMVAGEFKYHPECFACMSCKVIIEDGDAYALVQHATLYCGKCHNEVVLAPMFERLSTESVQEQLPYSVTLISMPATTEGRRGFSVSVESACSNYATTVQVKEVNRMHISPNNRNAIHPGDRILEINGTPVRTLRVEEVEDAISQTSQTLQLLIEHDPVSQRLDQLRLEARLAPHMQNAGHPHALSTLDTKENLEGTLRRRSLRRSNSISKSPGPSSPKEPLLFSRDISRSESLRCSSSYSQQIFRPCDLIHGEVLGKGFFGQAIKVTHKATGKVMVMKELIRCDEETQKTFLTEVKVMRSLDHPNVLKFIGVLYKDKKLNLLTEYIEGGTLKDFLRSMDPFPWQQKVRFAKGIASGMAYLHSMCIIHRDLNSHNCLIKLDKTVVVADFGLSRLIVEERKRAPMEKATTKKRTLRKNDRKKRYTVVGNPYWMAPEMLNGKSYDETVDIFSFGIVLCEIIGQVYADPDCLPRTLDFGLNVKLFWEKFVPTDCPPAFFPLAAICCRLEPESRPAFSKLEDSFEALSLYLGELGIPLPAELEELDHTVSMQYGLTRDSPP

[2] = target: MAP/microtubule affinity-regulating kinase 3 (Homo sapiens) (UniProt P27448); assay: Inhibition of human MARK3 assessed as percent of control at 2000 nM by KINOMEscan assay relative to control; set-up: scale not given: the % may be the effect or the level left
[3] = target: Receptor-type tyrosine-protein kinase FLT3 (Homo sapiens) (UniProt P36888); assay: Inhibition of human FLT3 assessed as percent of control at 2000 nM by KINOMEscan assay relative to control; set-up: scale not given: the % may be the effect or the level left
[4] = target: Homeodomain-interacting protein kinase 3 (Homo sapiens) (UniProt Q9H422); assay: Inhibition of human HIPK3 assessed as percent of control at 2000 nM by KINOMEscan assay relative to control; set-up: scale not given: the % may be the effect or the level left
Sequence of Homeodomain-interacting protein kinase 3 (Homo sapiens) (Q9H422 whole entry, looked up): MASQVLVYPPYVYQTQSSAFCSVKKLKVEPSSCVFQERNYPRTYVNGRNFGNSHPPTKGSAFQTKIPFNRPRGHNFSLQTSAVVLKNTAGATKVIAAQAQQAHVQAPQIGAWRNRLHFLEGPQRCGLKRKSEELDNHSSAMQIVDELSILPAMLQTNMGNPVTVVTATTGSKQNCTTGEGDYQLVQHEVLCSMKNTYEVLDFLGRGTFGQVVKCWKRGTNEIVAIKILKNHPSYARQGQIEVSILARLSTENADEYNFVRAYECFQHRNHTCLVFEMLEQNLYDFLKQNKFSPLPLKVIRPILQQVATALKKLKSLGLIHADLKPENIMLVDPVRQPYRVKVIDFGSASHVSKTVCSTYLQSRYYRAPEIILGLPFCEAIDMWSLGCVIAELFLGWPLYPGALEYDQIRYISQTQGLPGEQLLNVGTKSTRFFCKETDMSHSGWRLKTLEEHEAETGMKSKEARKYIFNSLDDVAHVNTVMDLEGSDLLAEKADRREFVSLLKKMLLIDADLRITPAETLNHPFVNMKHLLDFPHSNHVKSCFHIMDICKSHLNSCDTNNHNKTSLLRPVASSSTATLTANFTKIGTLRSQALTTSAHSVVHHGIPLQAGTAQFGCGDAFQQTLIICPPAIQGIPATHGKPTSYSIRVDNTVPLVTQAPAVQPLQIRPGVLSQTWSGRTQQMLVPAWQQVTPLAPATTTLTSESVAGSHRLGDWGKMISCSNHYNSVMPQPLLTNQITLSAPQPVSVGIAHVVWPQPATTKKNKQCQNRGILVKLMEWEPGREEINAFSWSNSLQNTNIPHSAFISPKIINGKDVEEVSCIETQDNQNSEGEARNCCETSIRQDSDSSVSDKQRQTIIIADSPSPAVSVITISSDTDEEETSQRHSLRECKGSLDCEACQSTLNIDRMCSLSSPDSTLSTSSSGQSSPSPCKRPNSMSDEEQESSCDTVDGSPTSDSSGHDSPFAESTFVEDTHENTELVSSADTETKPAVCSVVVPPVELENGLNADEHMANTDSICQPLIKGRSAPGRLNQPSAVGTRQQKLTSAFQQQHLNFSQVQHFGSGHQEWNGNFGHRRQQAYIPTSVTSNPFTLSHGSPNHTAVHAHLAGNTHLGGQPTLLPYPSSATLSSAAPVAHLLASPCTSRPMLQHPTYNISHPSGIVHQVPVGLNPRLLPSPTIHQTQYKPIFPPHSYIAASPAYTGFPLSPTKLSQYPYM

[5] = test system: Tyrosine-protein kinase ABL1 (Homo sapiens), P00519 [UNDEFINED MUTATION]; assay: Inhibition of non-phosphorylated human ABL1 […] mutant assessed as percent of control at 2000 nM by KINOMEscan assay relative to control; set-up: scale not given: the % may be the effect or the level left
[6] = target: Dual specificity mitogen-activated protein kinase kinase 3 (Homo sapiens) (UniProt P46734); assay: Inhibition of human MEK3 assessed as percent of control at 2000 nM by KINOMEscan assay relative to control; set-up: scale not given: the % may be the effect or the level left
[7] = target: Phosphorylase b kinase gamma catalytic chain, skeletal muscle/heart isoform (Homo sapiens) (UniProt Q16816); assay: Inhibition of human PHKG1 assessed as percent of control at 2000 nM by KINOMEscan assay relative to control; set-up: scale not given: the % may be the effect or the level left
[8] = test system: Mast/stem cell growth factor receptor Kit (Homo sapiens), P10721 [V559D,T670I]; assay: Inhibition of human KIT V559D/T670I double mutant assessed as percent of control at 2000 nM by KINOMEscan assay relative to control; set-up: scale not given: the % may be the effect or the level left
[9] = target: Serine/threonine-protein kinase WNK2 (Homo sapiens) (UniProt Q9Y3S1); assay: Inhibition of human WNK2 assessed as percent of control at 2000 nM by KINOMEscan assay relative to control; set-up: scale not given: the % may be the effect or the level left
[10] = target: Serine/threonine-protein kinase B-raf (Homo sapiens) (UniProt P15056); assay: Inhibition of human BRAF assessed as percent of control at 2000 nM by KINOMEscan assay relative to control; set-up: scale not given: the % may be the effect or the level left
[11] = target: ALK tyrosine kinase receptor (Homo sapiens) (UniProt Q9UM73); assay: Inhibition of human ALK assessed as percent of control at 2000 nM by KINOMEscan assay relative to control; set-up: scale not given: the % may be the effect or the level left
[12] = target: Serine/threonine-protein kinase tousled-like 2 (Homo sapiens) (UniProt Q86UE8); assay: Inhibition of human TLK2 assessed as percent of control at 2000 nM by KINOMEscan assay relative to control; set-up: scale not given: the % may be the effect or the level left
Sequence of Serine/threonine-protein kinase tousled-like 2 (Homo sapiens) (Q86UE8 whole entry, looked up): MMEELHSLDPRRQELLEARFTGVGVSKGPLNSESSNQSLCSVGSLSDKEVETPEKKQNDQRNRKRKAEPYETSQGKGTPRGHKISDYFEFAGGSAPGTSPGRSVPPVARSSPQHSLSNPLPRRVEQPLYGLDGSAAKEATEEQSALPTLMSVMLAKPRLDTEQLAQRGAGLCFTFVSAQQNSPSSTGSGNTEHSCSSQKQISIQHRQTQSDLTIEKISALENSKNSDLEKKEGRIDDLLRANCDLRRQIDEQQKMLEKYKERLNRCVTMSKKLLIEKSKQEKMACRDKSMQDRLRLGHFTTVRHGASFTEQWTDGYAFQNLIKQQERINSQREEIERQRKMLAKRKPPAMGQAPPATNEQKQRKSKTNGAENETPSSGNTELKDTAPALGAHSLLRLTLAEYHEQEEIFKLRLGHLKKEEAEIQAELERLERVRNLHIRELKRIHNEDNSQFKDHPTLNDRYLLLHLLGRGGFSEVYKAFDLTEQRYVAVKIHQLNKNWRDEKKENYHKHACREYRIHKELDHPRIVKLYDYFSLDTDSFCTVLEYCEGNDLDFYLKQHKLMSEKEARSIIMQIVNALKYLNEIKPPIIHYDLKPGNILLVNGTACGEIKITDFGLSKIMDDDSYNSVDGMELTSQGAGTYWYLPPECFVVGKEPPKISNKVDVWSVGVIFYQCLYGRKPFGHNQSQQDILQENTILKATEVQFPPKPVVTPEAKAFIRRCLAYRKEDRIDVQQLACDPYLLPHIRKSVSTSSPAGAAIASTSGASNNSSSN

[13] = target: Serine/threonine-protein kinase 10 (Homo sapiens) (UniProt O94804); assay: Inhibition of human LOK assessed as percent of control at 2000 nM by KINOMEscan assay relative to control; set-up: scale not given: the % may be the effect or the level left
[14] = target: Membrane-associated tyrosine- and threonine-specific cdc2-inhibitory kinase (Homo sapiens) (UniProt Q99640); assay: Inhibition of human PKMYT1 assessed as percent of control at 2000 nM by KINOMEscan assay relative to control; set-up: scale not given: the % may be the effect or the level left
[15] = target: 3-phosphoinositide-dependent protein kinase 1 (Homo sapiens) (UniProt O15530); assay: Inhibition of human PDPK1 assessed as percent of control at 2000 nM by KINOMEscan assay relative to control; set-up: scale not given: the % may be the effect or the level left
[16] = target: Casein kinase I isoform gamma-3 (Homo sapiens) (UniProt Q9Y6M4); assay: Inhibition of human CSNK1G3 assessed as percent of control at 2000 nM by KINOMEscan assay relative to control; set-up: scale not given: the % may be the effect or the level left
[17] = target: Fibroblast growth factor receptor 2 (Homo sapiens) (UniProt P21802); assay: Inhibition of human FGFR2 assessed as percent of control at 2000 nM by KINOMEscan assay relative to control; set-up: scale not given: the % may be the effect or the level left
[18] = target: Focal adhesion kinase 1 (Homo sapiens) (UniProt Q05397); assay: Inhibition of human FAK assessed as percent of control at 2000 nM by KINOMEscan assay relative to control; set-up: scale not given: the % may be the effect or the level left
[19] = target: LIM domain kinase 1 (Homo sapiens) (UniProt P53667); assay: Inhibition of human LIMK1 assessed as percent of control at 2000 nM by KINOMEscan assay relative to control; set-up: scale not given: the % may be the effect or the level left
[20] = target: Casein kinase I isoform epsilon (Homo sapiens) (UniProt P49674); conditions: INHIBITOR, dose 2000.0 nM
Description: Inhibition of human CSNK1E at 2000 nM by KINOMEscan assay

[21] = target: Mitogen-activated protein kinase kinase kinase 20 (Homo sapiens) (UniProt Q9NYL2); assay: Inhibition of human ZAK assessed as percent of control at 2000 nM by KINOMEscan assay relative to control; set-up: scale not given: the % may be the effect or the level left
[22] = target: Peripheral plasma membrane protein CASK (Homo sapiens) (UniProt O14936); assay: Inhibition of human CASK assessed as percent of control at 2000 nM by KINOMEscan assay relative to control; set-up: scale not given: the % may be the effect or the level left
[23] = target: Serine/threonine-protein kinase Sgk2 (Homo sapiens) (UniProt Q9HBY8); assay: Inhibition of human SGK2 assessed as percent of control at 2000 nM by KINOMEscan assay relative to control; set-up: scale not given: the % may be the effect or the level left
[24] = target: Serine/threonine-protein kinase Chk1 (Homo sapiens) (UniProt O14757); assay: Inhibition of human CHEK1 assessed as percent of control at 2000 nM by KINOMEscan assay relative to control; set-up: scale not given: the % may be the effect or the level left
[25] = target: Dual specificity mitogen-activated protein kinase kinase 5 (Homo sapiens) (UniProt Q13163); assay: Inhibition of human MEK5 assessed as percent of control at 2000 nM by KINOMEscan assay relative to control; set-up: scale not given: the % may be the effect or the level left
Sequence of Dual specificity mitogen-activated protein kinase kinase 5 (Homo sapiens) (Q13163 whole entry): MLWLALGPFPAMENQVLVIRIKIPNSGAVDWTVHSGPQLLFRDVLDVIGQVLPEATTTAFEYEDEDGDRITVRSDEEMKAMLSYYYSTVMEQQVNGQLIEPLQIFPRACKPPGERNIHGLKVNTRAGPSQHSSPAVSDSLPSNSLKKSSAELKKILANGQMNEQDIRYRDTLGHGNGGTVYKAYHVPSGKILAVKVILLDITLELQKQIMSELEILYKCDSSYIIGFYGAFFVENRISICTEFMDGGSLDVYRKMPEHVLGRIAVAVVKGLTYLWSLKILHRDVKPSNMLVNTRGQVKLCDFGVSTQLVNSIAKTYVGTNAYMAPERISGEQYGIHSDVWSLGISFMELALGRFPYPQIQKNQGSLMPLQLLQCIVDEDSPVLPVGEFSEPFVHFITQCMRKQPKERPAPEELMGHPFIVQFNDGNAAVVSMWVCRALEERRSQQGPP

[26] = target: RAC-gamma serine/threonine-protein kinase (Homo sapiens) (UniProt Q9Y243); assay: Inhibition of human AKT3 assessed as percent of control at 2000 nM by KINOMEscan assay relative to control; set-up: scale not given: the % may be the effect or the level left
[27] = target: Protein-tyrosine kinase 2-beta (Homo sapiens) (UniProt Q14289); assay: Inhibition of human PYK2 assessed as percent of control at 2000 nM by KINOMEscan assay relative to control; set-up: scale not given: the % may be the effect or the level left
Sequence of Protein-tyrosine kinase 2-beta (Homo sapiens) (Q14289 whole entry, looked up): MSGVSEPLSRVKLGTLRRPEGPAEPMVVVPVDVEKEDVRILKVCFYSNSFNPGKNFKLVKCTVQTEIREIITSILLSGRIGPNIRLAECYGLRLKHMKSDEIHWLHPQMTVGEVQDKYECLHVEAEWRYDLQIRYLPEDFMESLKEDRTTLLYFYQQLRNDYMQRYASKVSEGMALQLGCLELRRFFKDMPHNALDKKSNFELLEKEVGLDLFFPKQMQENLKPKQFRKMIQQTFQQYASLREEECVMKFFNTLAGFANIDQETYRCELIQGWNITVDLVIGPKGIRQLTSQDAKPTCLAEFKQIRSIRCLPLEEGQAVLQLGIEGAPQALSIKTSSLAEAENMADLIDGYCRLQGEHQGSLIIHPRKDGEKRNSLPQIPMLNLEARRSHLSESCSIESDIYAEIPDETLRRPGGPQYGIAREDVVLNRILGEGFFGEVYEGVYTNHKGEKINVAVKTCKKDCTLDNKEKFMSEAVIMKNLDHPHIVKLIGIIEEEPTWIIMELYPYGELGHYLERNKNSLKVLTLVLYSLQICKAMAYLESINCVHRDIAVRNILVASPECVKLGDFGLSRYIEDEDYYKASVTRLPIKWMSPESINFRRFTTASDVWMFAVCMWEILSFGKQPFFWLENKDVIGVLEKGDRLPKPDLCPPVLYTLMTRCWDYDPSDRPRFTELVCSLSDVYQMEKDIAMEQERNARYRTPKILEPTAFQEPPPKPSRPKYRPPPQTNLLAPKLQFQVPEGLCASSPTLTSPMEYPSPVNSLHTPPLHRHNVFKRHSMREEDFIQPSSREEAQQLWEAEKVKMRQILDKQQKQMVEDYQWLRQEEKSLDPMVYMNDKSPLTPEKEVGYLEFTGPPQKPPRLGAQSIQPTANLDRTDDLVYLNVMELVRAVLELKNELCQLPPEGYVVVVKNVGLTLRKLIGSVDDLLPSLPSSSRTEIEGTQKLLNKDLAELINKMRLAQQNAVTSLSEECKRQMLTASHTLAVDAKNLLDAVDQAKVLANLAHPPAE

[28] = target: Mitogen-activated protein kinase kinase kinase kinase 1 (Homo sapiens) (UniProt Q92918); assay: Inhibition of human HPK1 assessed as percent of control at 2000 nM by KINOMEscan assay relative to control; set-up: scale not given: the % may be the effect or the level left
Sequence of Mitogen-activated protein kinase kinase kinase kinase 1 (Homo sapiens) (Q92918 whole entry, looked up): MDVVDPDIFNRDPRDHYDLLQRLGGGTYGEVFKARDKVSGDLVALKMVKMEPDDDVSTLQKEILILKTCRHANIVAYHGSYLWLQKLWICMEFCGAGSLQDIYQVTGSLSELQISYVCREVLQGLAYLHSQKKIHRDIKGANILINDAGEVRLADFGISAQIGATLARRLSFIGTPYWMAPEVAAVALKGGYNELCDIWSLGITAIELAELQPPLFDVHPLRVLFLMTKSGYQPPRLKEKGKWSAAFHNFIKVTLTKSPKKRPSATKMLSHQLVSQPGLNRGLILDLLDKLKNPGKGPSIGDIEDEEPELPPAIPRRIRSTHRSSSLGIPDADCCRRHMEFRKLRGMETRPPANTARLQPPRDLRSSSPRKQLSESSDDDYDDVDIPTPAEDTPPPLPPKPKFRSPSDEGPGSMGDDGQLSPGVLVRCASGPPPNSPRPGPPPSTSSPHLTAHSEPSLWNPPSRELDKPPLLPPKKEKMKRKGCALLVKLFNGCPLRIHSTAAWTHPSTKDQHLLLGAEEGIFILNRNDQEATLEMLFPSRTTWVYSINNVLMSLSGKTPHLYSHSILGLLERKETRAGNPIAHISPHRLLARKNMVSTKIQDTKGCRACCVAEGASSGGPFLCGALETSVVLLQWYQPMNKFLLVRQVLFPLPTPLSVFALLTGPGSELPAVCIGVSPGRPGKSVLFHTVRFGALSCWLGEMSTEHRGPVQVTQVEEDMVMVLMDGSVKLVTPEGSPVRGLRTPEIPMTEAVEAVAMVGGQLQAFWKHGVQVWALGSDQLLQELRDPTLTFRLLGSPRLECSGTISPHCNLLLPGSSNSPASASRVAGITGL

[29] = target: Platelet-derived growth factor receptor alpha (Homo sapiens) (UniProt P16234); assay: Inhibition of human PDGFRA assessed as percent of control at 2000 nM by KINOMEscan assay relative to control; set-up: scale not given: the % may be the effect or the level left
[30] = test system: Tyrosine-protein kinase ABL1 (Homo sapiens), P00519 [F317L]; assay: Inhibition of non-phosphorylated human ABL1 F317L mutant assessed as percent of control at 2000 nM by KINOMEscan assay relative to control; set-up: scale not given: the % may be the effect or the level left
[31] = target: Tyrosine-protein kinase Fes/Fps (Homo sapiens) (UniProt P07332); assay: Inhibition of human FES assessed as percent of control at 2000 nM by KINOMEscan assay relative to control; set-up: scale not given: the % may be the effect or the level left

## CN(C)C(=O)c1ccc(N2CCCN(c3ccnc4sc(C(N)=O)c(N)c34)CC2)cc1
[1]
  Activity: 91% and 98%
[2]
  Activity: 98% and 100%
[3]
  Activity: 94% and 86%
[4]
  Activity: 77% and 81%
[5]
  Activity: 100% and 76%
[6]
  Activity: 68%
[6]; INHIBITOR
  Activity: 47%
[7]
  Activity: 94% and 97%
[8]
  Activity: 100% and 96%
[9]
  Activity: 96% and 94%
[10]
  Activity: 100% and 96%
[11]
  Activity: 81% and 78%
[12]
  Activity: 100% and 97%
[13]
  Activity: 84% and 69%
[14]
  Activity: 91% and 94%
[15]
  Activity: 100% and 96%
[16]
  Activity: 95% and 80%
[17]
  Activity: 99% and 98%
[18]
  Activity: 100% and 96%
[19]
  Activity: 100%
[20]
  inhibition: > 65%
[21]
  Activity: 94% and 100%
[22]
  Activity: 71% and 96%
[23]
  Activity: 100% and 81%
[24]
  Activity: 94% and 100%
[25]
  Activity: 86% and 65%
[26]
  Activity: 97% and 100%
[27]
  Activity: 97% and 84%
[28]
  Activity: 98% and 100%
[29]
  Activity: 70% and 65%
[30]
  Activity: 99% and 100%
[31]
  Activity: 100%
